{
  "source": "patent US20170209472A1",
  "about": "“PREVENTION OR TREATMENT OF FOOD ALLERGY IN INFANTS AND TODDLERS” (N.V. Nutricia, priority 2014, published 2017)",
  "key": {"IL-33 mRNA": {"tested_on": "IL-33 mRNA", "conditions": "distal small intestine, 6 h after oral DON gavage 25 mg/kg, vs control mice"}, "IL-33 [1]": {"tested_on": "IL-33", "assay": "systemic IL-33 measured by ELISA in mice serum", "format": "in vivo", "conditions": "DON gavage; data not shown"}, "[2]": {"conditions": "water and polar solvents such as methanol and acetonitrile; cited from earlier work"}, "Caco-2 cells": {"tested_on": "Caco-2 cells", "assay": "IL-33 in DON-stimulated Caco-2 cells", "format": "cell-based", "conditions": "data not shown"}, "[3]": {"tested_on": "whey protein allergy response", "conditions": "C3H/HeOuJ mice sensitized with low or high dose DON with or without whey; FIG. 2"}, "IL-33 [4]": {"tested_on": "IL-33", "conditions": "distal small intestine after DON gavage, vs control mice"}},
  "data": [
    {"smiles": "CC1=C[C@H]2O[C@@H]3[C@H](O)C[C@](C)([C@@]2(CO)[C@H](O)C1=O)[C@]31CO1", "note": "[DON, (3α, 7α)-3,7,15-trihydroxy-12,13-epoxytrichothec-9-en-8-one]", "values": [
      {"measurement": "IL-33 mRNA expression", "setting": "IL-33 mRNA", "value": "increase"},
      {"measurement": "systemic IL-33 in serum", "setting": "IL-33 [1]", "value": "neither affected"},
      {"measurement": "solubility", "setting": "[2]", "value": "soluble"},
      {"measurement": "IL-33 levels in the supernatant", "setting": "Caco-2 cells", "value": "did not induce increased"},
      {"measurement": "IL-33 mRNA expression levels", "setting": "Caco-2 cells", "value": "did not induce increased"},
      {"measurement": "whey protein allergy response (ear swelling)", "setting": "[3]", "value": "significantly increases"},
      {"measurement": "IL-33 production (immunohistochemistry)", "setting": "IL-33 [4]", "value": "obviously increased"}
    ]}
  ]
}
